Reference: patent US9637490B2, “Antifungal 5,6-dihydro-4-[(difluoroethyl)phenyl]-4H-pyrrolo[1,2-α][1,4]benzodiazepine and 4-(difluoroethyl)phenyl-6H-pyrrolo[1,2-α][1,4]benzodiazepine derivatives” (Janssen Pharmaceutica NV, priority 2010, dated 2017)

What was measured:
[1] = test system: Sporothrix schenkii B62482; assay: Antifungal activity in vitro (resazurin susceptibility screen), Inf. A; format: cell-based; details: Sporothrix, B62482, Sporothrix schenkii B62482; 27 °C, 4 days, resa time 24 hours
Description: (§1) The standard susceptibility screen was performed in 96-well plates (U-bottom, Greiner Bio-One). Serial dilutions (2-fold or 4-fold) of 20 mM compound stock solutions were made in 100% DMSO, followed by an intermediate dilution step in water. These serial dilutions (10 μl) were then spotted onto test-plates that could be stored in the dark at 4° C. for a maximum period of 2 weeks. An adequate broad dose-range was included with 64 μM as the highest in-test concentration. The culture medium RPMI-1640 was supplemented with L-glutamine, 2% glucose and buffered with 3-(N-morpholino)-propanesulfonic acid (MOPS) at pH 7.0±0.1. The different fungal species/isolates (Table 3a) were cryopreserved and 1/1000 diluted in medium just prior to use. A standard inoculum of 200 μl containing 10^3 colony-forming unit (cfu) was then added to each well. A positive control (100% growth=fungal culture without antifungal) and a negative control (0% growth=RPMI-MOPS medium) were included on each plate. Optimal incubation time and temperature were dependent on the fungal species and vary from 24 h for yeasts (37° C.) to one week or more for dermatophytes (27° C.). Inhibition of fungal growth was measured after adding 10 μl of 0.005% (w/v) resazurin (Sigma Aldrich) to each well, based on the principle that living cells convert the non-fluorescent blue resazurin into the pink and fluorescent resorufin, allowing fluorimetric reading (λhd ex 550 nm and μem 590 nm) after an additional incubation period (‘resa’ time mentioned in Table 3a). [table]

Microsporum canis B68128 = assay: Antifungal activity in vitro (resazurin susceptibility screen), Inf. B; format: cell-based; details: Microsporum canis, B68128, Microsporum canis B68128; 27 °C, 9 days, resa time 24 hours
Description: as §1

[2] = test system: Trichophyton rubrum B68183; assay: Antifungal activity in vitro (resazurin susceptibility screen), Inf. C; format: cell-based; details: Trichophyton rubrum, B68183, Trichophyton rubrum B68183; 27 °C, 7 days, resa time 24 hours
Description: as §1

[3] = test system: Candida parapsilosis B66126; assay: Antifungal activity in vitro (resazurin susceptibility screen), Inf. D; format: cell-based; details: Lodderomyces parapsilosis, B66126, Candida parapsilosis B66126; 37 °C, 24 hours, resa time 4 hours
Description: as §1

[4] = test system: Aspergillus fumigatus B42928; assay: Antifungal activity in vitro (resazurin susceptibility screen), Inf. E; format: cell-based; details: Aspergillus fumigatus, B42928, Aspergillus fumigatus B42928; 27 °C, 48 hours, resa time 17 hours
Description: as §1

[5] = test system: Cryptococcus neoformans B66663; assay: Antifungal activity in vitro (resazurin susceptibility screen), Inf. F; format: cell-based; details: Cryptococcus neoformans, B66663, Cryptococcus neoformans B66663; 37 °C, 24 hours, resa time 4 hours
Description: as §1

[6] = test system: Trichophyton mentagrophytes B70554; assay: Antifungal activity in vitro (resazurin susceptibility screen), Inf. G; format: cell-based; details: Trichophyton mentagrophytes, B70554, Trichophyton mentagrophytes B70554; 27 °C, 7 days, resa time 24 hours
Description: as §1

[7] = test system: Scedosporium apiospermum IHEM3817; assay: Antifungal activity in vitro (resazurin susceptibility screen), Inf. H; format: cell-based; details: Scedosporium apiospermum, IHEM3817, Scedosporium apiospermum IHEM3817; 37 °C, 48 hours, resa time 17 hours
Description: as §1

[8] = test system: Scedosporium prolificans IHEM21157; assay: Antifungal activity in vitro (resazurin susceptibility screen), Inf. I; format: cell-based; details: Lomentospora prolificans, 37 °C, 48 hours, resa time 17 hours
Description: as §1

Rhizopus oryzae IHEM5223 = assay: Antifungal activity in vitro (resazurin susceptibility screen), Inf. J; format: cell-based; details: Rhizopus arrhizus, 37 °C, 24 hours, resa time 6 hours
Description: as §1

[9] = test system: Rhizomucor miehei IHEM13391; assay: Antifungal activity in vitro (resazurin susceptibility screen), Inf. K; format: cell-based; details: Rhizomucor miehei, IHEM13391, Rhizomucor miehei IHEM13391; 37 °C, 48 hours, resa time 17 hours
Description: as §1

[10] = test system: Mucor circinelloides IHEM21105; assay: Antifungal activity in vitro (resazurin susceptibility screen), Inf. L; format: cell-based; details: 27 °C, 48 hours, resa time 17 hours
Description: as §1

Structure (SMILES)	IC50 [1] [µM]	IC50 (Microsporum canis B68128) [µM]	IC50 [2] [µM]	IC50 [3] [µM]	IC50 [4] [µM]	IC50 [5] [µM]	IC50 [6] [µM]	IC50 [7] [µM]	IC50 [8] [µM]	IC50 (Rhizopus oryzae IHEM5223) [µM]	IC50 [9] [µM]	IC50 [10] [µM]	melting point
Cc1cc(Cl)cc2c1CN=C(c1ccc(C(C)(F)F)cc1)c1cccn1-2 [Compound 16, 9-chloro-4-[4-(1,1-difluoroethyl)phenyl]-7-methyl-6H-pyrrolo[1,2-a][1,4]-benzodiazepine]	3.8	2	0.617	10.7	1.7	0.724	1.66	10.2	1.2	> 64.6	> 64.6	> 64.6	89.6 to 91.2 °C
CC(F)(F)c1ccc(C2=NCc3c(Cl)cc(F)cc3-n3cccc32)cc1F [Compound 31, 7-chloro-4-[4-(1,1-difluoroethyl)-3-fluorophenyl]-9-fluoro-6H-pyrrolo[1,2-a][1,4]-benzodiazepine]	2.34	0.437	0.468	3.47	0.501	0.295	1.26	10.5	8.71	> 64.6	> 64.6	> 64.6	162.5 to 164.8 °C
CC(F)(F)c1ccc(C2=NCc3c(F)cc(F)cc3-n3cccc32)cc1F [Compound 33, 4-[4-(1,1-difluoroethyl)-3-fluorophenyl]-7,9-difluoro-6H-pyrrolo[1,2-a][1,4]-benzodiazepine]	9.33	1.95	0.724	13.5	1.91	2.63	2.14	0.646	10.5	> 64.6	> 64.6	> 64.6	158.2 to 161.3 °C
CC(F)(F)c1cc(C2=NCc3c(Cl)cc(Cl)cc3-n3cccc32)ccc1F [Compound 25, 7,9-dichloro-4-[3-(1,1-difluoroethyl)-4-fluorophenyl]-6H-pyrrolo[1,2-a][1,4]-benzodiazepine]	14.1	1.58	1.26	> 64.6	1.02	> 64.6	2.19	0.407	0.501	> 64.6	> 64.6	> 64.6	124.2 to 125.4 °C
CC(F)(F)c1ccc(C2=NCc3cccc(Cl)c3-n3cccc32)cc1 [Compound 19, 10-chloro-4-[4-(1,1-difluoroethyl)phenyl]-6H-pyrrolo[1,2-a][1,4]benzodiazepine]	2.82	2.04	0.214	13.2	2.04	1.62	0.646	2.34	0.513	9.77	14.5	> 64.6	247.5 °C (dec.)
CC(F)(F)c1ccc(C2=NCc3c(Cl)cccc3-n3cccc32)cc1F [Compound 29, 7-chloro-4-[4-(1,1-difluoroethyl)-3-fluorophenyl]-6H-pyrrolo[1,2-a][1,4]benzodiazepine]	> 64.6	0.11	0.0851	> 64.6	0.501	> 64.6	0.191	> 64.6	> 64.6	> 64.6	> 64.6	> 64.6	186.3 to 186.6 °C
CC(F)(F)c1ccc(C2=NCc3c(F)cc(Cl)cc3-n3cccc32)cc1 [Compound 32, 9-chloro-4-[4-(1,1-difluoroethyl)phenyl]-7-fluoro-6H-pyrrolo[1,2-a][1,4]benzodiazepine]	6.17	1.66	1.66	2.75	2	1.29	1.66	> 64.6	> 64.6	> 64.6	> 64.6	> 64.6	145.3 to 147.4 °C
